# Reference: patent publication US20110282066A1, “SCREENING METHOD FOR SUBSTANCE USEFUL AS AGENT FOR TREATING PROSTATE CANCER” (priority 2009, published 2011)
# Biological target: T1, human 17βHSD type 3 (Homo sapiens, UniProt P37058)
# T1 construct: A full-length cDNA encoding human 17βHSD type 3 used in the pharmacological test; made in house; host or cells: human fetus kidney-derived 293 cells (transfected; supernatant of disrupted cells, not purified)
# T1 sequence (P37058 1-310): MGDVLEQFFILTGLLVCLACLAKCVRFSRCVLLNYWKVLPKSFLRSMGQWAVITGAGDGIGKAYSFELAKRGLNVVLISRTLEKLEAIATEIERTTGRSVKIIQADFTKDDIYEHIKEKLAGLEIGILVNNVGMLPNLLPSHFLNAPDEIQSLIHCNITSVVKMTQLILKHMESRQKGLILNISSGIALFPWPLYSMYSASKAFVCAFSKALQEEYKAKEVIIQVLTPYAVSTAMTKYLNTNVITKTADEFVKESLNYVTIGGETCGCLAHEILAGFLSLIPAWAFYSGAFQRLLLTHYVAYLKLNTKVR
# Assay: Measurement of enzyme activity of human 17βHSD type 3
# Format: biochemical
# Details: enzyme source: supernatant of transformed 293 cells; read-out: Type3 IC50
# Experimental: A full-length cDNA encoding human 17βHSD type 3 used in the pharmacological test of this test example was obtained by the PCR method using a cDNA derived from human testis as a template. The nucleotide sequence of the obtained cDNA was analyzed by the dideoxyterminator method, and the clone matched with the known human 17βHSD type 3 sequence (GenBank accession No. BC034281) was selected. Subsequently, human fetus kidney-derived cell line, 293 cells, were transformed with a plasmid containing the cDNA, and the cells were collected 24 hours later. […]
# Enzyme activity was measured referring to Trevor M. Penning, et al., Biochem. J., 351, 67-77, (2000). Specifically, using a 100 mM potassium phosphate buffer (pH 6.0), (1) the enzyme purified in Section 1 at a final concentration of 10 μg/mL, (2) androstenedione at a final concentration of 300 nM, (3) NADPH at a final concentration of 200 μM, and (4) a test substance, were mixed to react at room temperature for 2 hours, and then the amount of testosterone produced was measured using DELFIA (trademark) Testosterone Reagents R050-201 (manufactured by PerkinElmer). […] Then, IC50 values were calculated by the Logistic regression method.
row,SMILES,IC50 [µM]
1,"COc1nc2cc(C(F)(F)F)ccc2n1-c1cccc(C(=O)O)c1 [compound 32, 3-[2-methoxy-5-(trifluoromethyl)-1H-benzimidazol-1-yl]benzoic acid]",> 10
2,"O=C(O)c1cccc(-n2c(COc3ccccc3)nc3cc(C(F)(F)F)ccc32)c1 [compound 44, 3-[2-phenoxymethyl-5-(trifluoromethyl)-1H-benzimidazol-1-yl]benzoic acid]",> 10

# System: testosterone production in the CWR22R tumor
# Assay: Testosterone production suppression in the tumor of a CWR22R tumor-bearing mouse
# Format: in vivo, nude mouse
# Details: 22Rv1, 10 mg/kg oral, androstenedione 1 ng/100 mm^3 into the tumor an hour later, dissection an hour after that, read-out: Inh (%) testosterone production suppression rate
# Text: Inhibition rate (%)=100×(average value of the hormone concentration in the solvent for administering test substance-administered group−average value of the hormone concentration in the test substance-administered group)/(average value of the hormone concentration in the solvent for administering test substance-administered group−average value of the background hormone concentration)
# A CWR22R tumor was excised from a CWR22R subcutaneous tumor-bearing nude mouse. The excised tumor was segmented to become tumor specimens with size of about 5 mm per specimen. The tumor specimens were washed with a 20% serum-containing RPMI1640 culture medium twice and then stirred for about 20 minutes in a 0.1% protease and 20% serum-containing RPMI1640 culture medium. Supernatant was recovered to recover cells through centrifugation. These procedures were repeated as necessary, recovered cells were collected, and thereby the cell solution was prepared. After the cell number was counted, the cell solution was adjusted to 2×10^7 cells/mL. The same amount of the cell solution and Matrigel were mixed and adjusted to the final value of 1×10^7 cells/mL. 0.1 mL of the cell Matrigel mixture prepared in the above-described manner was subcutaneously injected to one site of the back of a male nude mouse with testectomy for the transplant. After the transplant, at a time point when the tumor volume reached 100 mm^3 or more, grouping was performed based on the tumor volume to conduct the following experiments.
# Test substances were orally administered to the CWR22R subcutaneous tumor-bearing mouse. After an hour, that is, an hour before dissection, androstenedione was administered into the tumor to yield a level of 1 ng/100 mm^3 in the tumor. The composition of the liquid for administering androstenedione included 0.000075% DMF/0.00005% polysorbate 80/9.999875% saline/90% Matrigel. Tumor excision was performed through the dissection, and the tumor was weighed and then frozen for preservation. For the purpose of measuring the background value, the tumor of the mouse to which only the solvent for administering test substances had been orally administered was excised. Subsequently, under the ice cooling, the liquid for administering androstenedione was added thereto, and the resultant was subjected to quick-freezing for preservation.
# To the tumor sample preserved through freezing was added a 0.2 M Na-K phosphate buffer (pH 7.4), and thereby a tumor homogenate was prepared under ice cooling by using a homogenizer (polytron). Tert-butyl methyl ether with a 6-fold capacity was added to the tumor homogenate, followed by centrifugation (3000 rpm, 5 min), and the supernatant was transferred to another test tube. While the test tube was maintained at 40° C. in a heat block, the solvent was evaporated by nitrogen gas. 2% BSA-containing 10 mM Tris-Cl buffer (pH 7.4) was added to the test tube and mixed to obtain an extract, and the testosterone concentration was measured by using DELFIA (trademark) Testosterone Reagents R050-201 (manufactured by PerkinElmer, Inc.).
# The testosterone production suppression rates (%) of some Reference Example compounds in the tumor of CWR22R tumor-bearing mouse are shown in Table 25. Ex represents a Reference Example number, Inh represents the testosterone production suppression rates upon administration of 10 mg/kg of the Reference Example compounds.
row,SMILES,inhibition at 10 mg/kg [%]
1,"COCCc1cn(-c2cccc(C(=O)O)c2)c2ccc(C(F)(F)F)cc12 [Reference Example 47, 3-[3-(2-methoxyethyl)-5-(trifluoromethyl)-1H-indol-1-yl]benzoic acid]",33
2,"O=C(O)c1cccc(-n2c(C(F)(F)F)nc3cc(C(F)(F)F)ccc32)c1 [Reference Example 54, 3-[2,5-bis(trifluoromethyl)-1H-benzimidazol-1-yl]benzoic acid]",99
3,"O=C(O)c1cccc(-n2c(-c3ccccc3)nc3cc(C(F)(F)F)ccc32)c1 [compound 17, 3-[2-phenyl-5-(trifluoromethyl)-1H-benzimidazol-1-yl]benzoic acid]",75
4,"O=C(O)c1cccc(-n2cnc3cc(C(F)(F)F)ccc32)c1 [compound 20, 3-[5-(trifluoromethyl)-1H-benzimidazol-1-yl]benzoic acid]",89
5,"Cc1nc2cc(C(F)(F)F)ccc2n1-c1cccc(C(=O)O)c1 [compound 21, 3-[2-methyl-5-(trifluoromethyl)-1H-benzimidazol-1-yl]benzoic acid]",97
6,"CCCc1nc2cc(C(F)(F)F)ccc2n1-c1cccc(C(=O)O)c1 [compound 23, 3-[2-propyl-5-(trifluoromethyl)-1H-benzimidazol-1-yl]benzoic acid]",96
7,"Cc1cccc(-c2nc3cc(C(F)(F)F)ccc3n2-c2cccc(C(=O)O)c2)c1 [compound 36, 3-[2-(3-methylphenyl)-5-(trifluoromethyl)-1H-benzimidazol-1-yl]benzoic acid]",45
8,"O=C(O)c1cccc(-n2c(Cc3ccccc3)nc3cc(C(F)(F)F)ccc32)c1 [compound 38, 3-[2-benzyl-5-(trifluoromethyl)-1H-benzimidazol-1-yl]benzoic acid]",66
9,"O=C(O)c1cccc(-n2c(Cc3cccc(F)c3)nc3cc(C(F)(F)F)ccc32)c1 [compound 39, 3-[2-(3-fluorobenzyl)-5-(trifluoromethyl)-1H-benzimidazol-1-yl]benzoic acid]",31
10,"O=C(O)c1cccc(-n2c(Cc3ccc(F)cc3)nc3cc(C(F)(F)F)ccc32)c1 [compound 40, 3-[2-(4-fluorobenzyl)-5-(trifluoromethyl)-1H-benzimidazol-1-yl]benzoic acid]",49
11,"O=C(O)c1cccc(-n2c(Cc3ccc(Cl)cc3)nc3cc(C(F)(F)F)ccc32)c1 [compound 41, 3-[2-(4-chlorobenzyl)-5-(trifluoromethyl)-1H-benzimidazol-1-yl]benzoic acid]",45
12,O=C(O)c1cccc(-n2c(COc3ccc(F)cc3)nc3cc(C(F)(F)F)ccc32)c1 [compound 45],94
